Results from patent publication US8084466B2, “Bicyclic heteroaryl-substituted imidazoles as modulators of the histamine H4 receptor” (Janssen Pharmaceutica NV, priority 2007, dated 2011).

Target: T1, human histamine H4 receptor (Homo sapiens, UniProt Q9H3N8)
T1 construct: expressed in transfected cells; host or cells: SK-N-MC cells or COS7 cells, transient transfection with pH4R; cell membranes
Assay: Binding Assay on Recombinant Human Histamine H4 Receptor
Details: competition binding with 3H-histamine (5 nM; KD 5 nM), membranes of SK-N-MC or COS7 cells expressing human H4 receptor; average of results; > = highest value tested
Experimental: Biological Methods: Binding Assay on Recombinant Human Histamine H4 Receptor
SK-N-MC cells or COS7 cells were transiently transfected with pH4R and grown in 150 cm^2 tissue culture dishes. Cells were washed with saline solution, scraped with a cell scraper and collected by centrifugation (1000 rpm, 5 min). Cell membranes were prepared by homogenization of the cell pellet in 20 mM Tris-HCl with a polytron tissue homogenizer for 10 sec at high speed. Homogenate was centrifuged at 1000 rpm for 5 min at 4° C. The supernatant was then collected and centrifuged at 20,000×g for 25 min at 4° C. The final pellet was resuspended in 50 mM Tris-HCl. Cell membranes were incubated with ^3H-histamine (5-70 nM) in the presence or absence of excess histamine (10,000 nM). Incubation occurred at room temperature for […]. Membranes were harvested by rapid filtration over Whatman GF/C filters and washed 4 times with ice-cold 50 mM Tris HCl. Filters were then dried, mixed with scintillant and counted for radioactivity. SK-N-MC or COS7 cells expressing human histamine H4 receptor were used to measure the affinity of binding of other compounds and their ability to displace ^3H-ligand binding by incubating the above-described reaction in the presence of various concentrations of inhibitor or compound to be tested. For competition binding studies using ^3H-histamine, Ki values were calculated, based on an experimentally determined KD value of 5 nM and a ligand concentration of 5 nM, according to Y.-C.

T1 sequence (Q9H3N8 whole entry): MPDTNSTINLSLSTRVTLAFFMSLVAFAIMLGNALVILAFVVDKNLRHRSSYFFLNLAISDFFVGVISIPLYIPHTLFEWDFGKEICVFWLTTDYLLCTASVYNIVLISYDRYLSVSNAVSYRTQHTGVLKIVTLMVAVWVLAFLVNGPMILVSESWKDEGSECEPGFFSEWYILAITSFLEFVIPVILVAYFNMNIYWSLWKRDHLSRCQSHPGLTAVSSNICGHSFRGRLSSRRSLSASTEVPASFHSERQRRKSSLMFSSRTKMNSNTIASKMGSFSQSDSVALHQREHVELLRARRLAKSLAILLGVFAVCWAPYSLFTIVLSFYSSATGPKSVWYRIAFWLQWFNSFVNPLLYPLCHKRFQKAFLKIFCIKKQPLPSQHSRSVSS

Going from `Cc1c(F)ccc2[nH]c(-c3ccc4c(c3)ncn4CCCC3CCN(C)CC3)nc12` [Example 40, 5-Fluoro-4-methyl-1′-[3-(1-methyl-piperidin-4-yl)-propyl]-1H,1′H-[2,5′]bibenzoimidazolyl] to `Cc1cccc2[nH]c(-c3ccc4c(c3)ncn4CCCCC3CCN(C)CC3)nc12` [Example 42, 4-Methyl-1′-[4-(1-methyl-piperidin-4-yl)-butyl]-1H,1′H-[2.5′]bibenzoimidazolyl], the Ki rises from 65 nM to 2000 nM (31-fold). The first binds more tightly here.

First: CN1CCC(CCCCn2ccc3c(-c4nc5cc6ccccc6cc5[nH]4)cccc32)CC1 [Example 21, 2-{1-[4-(1-Methyl-piperidin-4-yl)-butyl]-1H-indol-4-yl}-1H-naphtho[2,3-d]imidazole]
Second: c1ccc2cc3[nH]c(-c4cccc5c4ccn5CCCCC4CCNCC4)nc3cc2c1 [Example 127, 2-[1-(4-Piperidin-4-yl-butyl)-1H-indol-4-yl]-1H-naphtho[2,3-d]imidazole]
The Ki of the first is 11-fold lower: 187 nM for the first, 2100 nM for the second. The first binds more tightly here.

`CC(C)(C)c1ccc2[nH]c(-c3ccc4c(ccn4CCCN4CCNCC4)c3)nc2c1` [Example 63, 5-tert-Butyl-2-[1-(3-piperazin-1-yl-propyl)-1H-indol-5-yl]-1H-benzoimidazole] and `CC(C)(C)c1ccc2[nH]c(-c3ccc4c(c3)c(Cl)cn4CCCC3CCNCC3)nc2c1` [Example 34, 5-tert-Butyl-2-[3-chloro-1-(3-piperidin-4-yl-propyl)-1H-indol-5-yl]-1H-benzoimidazole] are within 1.5-fold of each other in Ki: 1680 nM for the first, 2000 nM for the second.

Going from `Cc1cccc2[nH]c(-c3ccc4c(ncn4CCCC4CCNCC4)c3C)nc12` [Example 111, 4,4′-Dimethyl-1′-(3-piperidin-4-yl-propyl)-1H,1′H-[2,5′]bibenzoimidazolyl] to `Cc1cccc2[nH]c(-c3ccc4c(ncn4CCCC4CCN(C)CC4)c3C)nc12` [Example 53, 4,4′-Dimethyl-1′-[3-(1-methyl-piperidin-4-yl)-propyl]-1H,1′H-[2,5′]bibenzoimidazolyl], the Ki falls from 478 nM to 15 nM (32-fold).

Going from `CN1CCC(CCCn2ccc3cc(-c4nc5cc(Cl)ccc5[nH]4)c(Cl)cc32)CC1` [Example 102, 5-Chloro-2-{6-chloro-1-[3-(1-methyl-piperidin-4-yl)-propyl]-1H-indol-5-yl}-1H-benzoimidazole] to `Clc1ccc2[nH]c(-c3cc4ccn(CCCC5CCNCC5)c4cc3Cl)nc2c1` [Example 101, 5-Chloro-2-[6-chloro-1-(3-piperidin-4-yl-propyl)-1H-indol-5-yl]-1H-benzoimidazole], the Ki falls from greater than 10000 nM to 3330 nM. The second binds more tightly here.

Compared with `CN1CCC(CCCCn2ccc3c(-c4nc5c(Cl)cccc5[nH]4)cccc32)CC1` [Example 17, 4-Chloro-2-{1-[4-(1-methyl-piperidin-4-yl)-butyl]-1H-indol-4-yl}-1H-benzoimidazole], `Cc1cccc2[nH]c(-c3cccc4c3ccn4CCCCC3CCN(C)CC3)nc12` [Example 23, 4-Methyl-2-{1-[4-(1-methyl-piperidin-4-yl)-butyl]-1H-indol-4-yl}-1H-benzoimidazole] is 1.7-fold higher in Ki: 58 nM for the first, 98 nM for the second.

First: CCCc1[nH]c(-c2ccc3c(ncn3CCCC3CCN(C)CC3)c2C)nc1C [Example 81, 4-Methyl-1-[3-(1-methyl-piperidin-4-yl)-propyl]-5-(4-methyl-5-propyl-1H-imidazol-2-yl)-1H-benzoimidazole]
Second: Cc1ccc2[nH]c(-c3ccc4c(ncn4CCCC4CCN(C)CC4)c3C)nc2c1C [Example 52, 5,4′-Trimethyl-1′-[3-(1-methyl-piperidin-4-yl)-propyl]-1H,1′H-[2,5′]bibenzoimidazolyl]
The Ki of the first is 29-fold higher: 953 nM for the first, 33 nM for the second. The second binds more tightly here.

Going from `COC(=O)c1ccc2[nH]c(-c3ccc4c(c3Cl)CCN4CCCC3CCN(C)CC3)nc2c1` [Example 5, 2-{4-Chloro-1-[3-(1-methyl-piperidin-4-yl)-propyl]-2,3-dihydro-1H-indol-5-yl}-1H-benzoimidazole-5-carboxylic acid methyl ester] to `Cc1c(-c2nc3c(C)cc(F)cc3[nH]2)ccc2c1CCN2CCCC1CCN(C)CC1` [Example 59, 6-Fluoro-4-methyl-2-{4-methyl-1-[3-(1-methyl-piperidin-4-yl)-propyl]-2,3-dihydro-1H-dihydro-1H-indol-5-yl}-1H-benzoimidazole], the Ki falls from 76 nM to 18 nM (4.2-fold).

Compared with `CN1CCC(CCCCn2ccc3c(-c4nc5ccc6ccccc6c5[nH]4)cccc32)CC1` [Example 71, 2-{1-[4-(1-Methyl-piperidin-4-yl)-butyl]-1H-indol-4-yl}-1H-naphtho[1,2-d]imidazole], `CN1CCC(CCCCn2ccc3c(-c4nc5cc(F)ccc5[nH]4)cccc32)CC1` [Example 69, 5-Fluoro-2-{1-[4-(1-methyl-piperidin-4-yl)-butyl]-1H-indol-4-yl}-1H-benzoimidazole] is 2.5-fold lower in Ki: 802 nM for the first, 325 nM for the second.

First: Cc1cc(C)c2nc(-c3ccc4c(ccn4CCCC4CCN(C)CC4)c3Cl)[nH]c2c1 [Example 9, 2-{4-Chloro-1-[3-(1-methyl-piperidin-4-yl)-propyl]-1H-indol-5-yl}-4,6-dimethyl-1H-benzoimidazole]
Second: Cc1cc(Cl)cc2[nH]c(-c3cccc4c3ccn4CCCCC3CCN(C)CC3)nc12 [Example 22, 6-Chloro-4-methyl-2-{1-[4-(1-methyl-piperidin-4-yl)-butyl]-1H-indol-4-yl}-1H-benzoimidazole]
The Ki of the first is 7.5-fold lower: 14 nM for the first, 105 nM for the second.

Compared with `O=C(c1ccccc1)c1ccc2[nH]c(-c3cccc4c3ccn4CCCCC3CCNCC3)nc2c1` [Example 77, Phenyl-{2-[1-(4-piperidin-4-yl-butyl)-1H-indol-4-yl]-1H-benzoimidazol-5-yl}-methanone], `Clc1ccc2nc(-c3cccc4c3ccn4CCCCC3CCNCC3)[nH]c2c1` [Example 140, 6-Chloro-2-[1-(4-piperidin-4-yl-butyl)-1H-indol-4-yl]-1H-benzoimidazole] is 2-fold higher in Ki: 1670 nM for the first, 3330 nM for the second. The first binds more tightly here.

Going from `Fc1cc(F)c2nc(-c3cc4ccn(CCCC5CCNCC5)c4cc3Cl)[nH]c2c1` [Example 99, 2-[6-Chloro-1-(3-piperidin-4-yl-propyl)-1H-indol-5-yl]-4,6-difluoro-1H-benzoimidazole] to `Cc1c(F)ccc2[nH]c(-c3ccc4ccn(CCCCC5CCNCC5)c4c3)nc12` [Example 38, 5-Fluoro4-methyl-2-[1-(4-piperidin-4-yl-butyl)-1H-indol-6-yl]-1H-benzoimidazole], the Ki falls from 2670 nM to 1140 nM (2.3-fold). The second binds more tightly here.

Going from `Cc1c(-c2nc3cc(Cl)ccc3[nH]2)ccc2c1ccn2CCCC1CCN(C)CC1` [Example 10, 5-Chloro-2-{4-methyl-1-[3-(1-methyl-piperidin-4-yl)-propyl]-1H-indol-5-yl}-1H-benzoimidazole] to `Cc1cc(F)cc2[nH]c(-c3ccc4c(ncn4CCCC4CCN(C)CC4)c3C)nc12` [Example 55, 6-Fluoro-4,4′-dimethyl-1′-[3-(1-methyl-piperidin-4-yl)-proyl]-1H,1′H-[2,5′]bibenzoimidazolyl], the Ki falls from 19 nM to 4 nM (4.8-fold). The second binds more tightly here.

First: Cc1c(F)ccc2[nH]c(-c3ccc4c(c3)CCN4CCCC3CCN(C)CC3)nc12 [Example 96, 5-Fluoro-4-methyl-2-{1-[3-(1-methyl-piperidin-4-yl)-propyl]-2,3-dihydro-1H-indol-5-yl}-1H-benzoimidazole]
Second: Cc1c(F)ccc2[nH]c(-c3ccc4c(c3)CCN4CCCC3CCNCC3)nc12 [Example 93, 5-Fluoro-4-methyl-2-[1-(3-piperidin-4-yl-propyl)-2,3-dihydro-1H-indol-5-yl]-1H-benzoimidazole]
The Ki of the first is 11-fold lower: 103 nM for the first, 1100 nM for the second.

`Fc1ccc2[nH]c(-c3cccc4c3ccn4CCCCC3CCNCC3)nc2c1F` [Example 110, 4,5-Difluoro-2-[1-(4-piperidin-4-yl-butyl)-1H-indol-4-yl]-1H-benzoimidazole] and `Cc1ccc2[nH]c(-c3cccc4c3ccn4CCCCC3CCNCC3)nc2c1C` [Example 106, 6,7-Dimethyl-2-[1-(4-piperidin-4-yl-butyl)-1H-indol-4-yl]-1H-benzoimidazole] are within 1.5-fold of each other in Ki: 3330 nM for the first, 2640 nM for the second.

`CN1CCC(CCCCn2cnc3ccc(-c4nc5cc(F)ccc5[nH]4)cc32)CC1` [Example 126, 5-Fluoro-3′-[4-(1-methyl-piperidin-4-yl)-butyl]-1H,3′H [2,5′]bibenzoimidazolyl] and `Cc1cccc2[nH]c(-c3ccc4c(c3)ncn4CCCCC3CCNCC3)nc12` [Example 117, 4-Methyl-1′-(4-piperidin-4-yl-butyl)-1H,1′H-[2.5′]bibenzoimidazolyl] cannot be ordered by Ki: greater than 10000 nM for the first, greater than 10000 nM for the second.

Going from `Cc1cccc2[nH]c(-c3cccc4c3ccn4CCCCC3CCNCC3)nc12` [Example 66, 4-Methyl-2-[1-(4-piperidin-4-yl-butyl)-1H-indol-4-yl]-1H-benzoimidazole] to `CC(C)(C)c1ccc2[nH]c(-c3cccc4c3ccn4CCCCC3CCNCC3)nc2c1` [Example 105, 5-tert-Butyl-2-[1-(4-piperidin-4-yl-butyl)-1H-indol-4-yl]-1H-benzoimidazole], the Ki rises from 1180 nM to 2660 nM (2.3-fold).

First: COc1ccc(-c2[nH]c(-c3ccc4c(ncn4CCCC4CCN(C)CC4)c3C)nc2C)cc1 [Example 143, 5-[5-(4-Methoxy-phenyl)-4-methyl-1H-imidazol-2-yl]-4-methyl-1-[3-(1-methyl-piperidin-4-yl)-propyl]-1H-benzoimidazole]
Second: Cc1cc(C)c2nc(-c3ccc4c(c3)c(C)c(C)n4CCCC3CCNCC3)[nH]c2c1 [Example 89, 2-[2,3-Dimethyl-1-(3-piperidin-4-yl-propyl)-1H-indol-5-yl]-4,6-dimethyl-1H-benzoimidazole]
The Ki of the first is 2000-fold lower: 1 nM for the first, 2000 nM for the second.
